Experimental data from patent US20060025458A1, “Alkylammonium compounds as antifungal and antitrypanosomal agents” (University of Connecticut, priority 2004, published 2006).

Experiments:
[1] = tested on: de novo CDP-choline pathway (PtdCho synthesis from choline); test: Incorporation of labeled choline into PtdCho in P. falciparum-infected erythrocytes; type: cell-based, Plasmodium falciparum
Procedure: FIG. 10A. […] 5-6×10^7 synchronized P. falciparum-infected erythrocytes (7% trophozoite stage) were pre-incubated at 4% haematocrit for 1 h in RPMI-based medium containing the indicated concentration of G25 before adding 30 μM [methyl-^3H]-choline (334 mCi/mmol). After incubation at 37° C. for 3 h, the cellular lipids were extracted and fractionated on TLC plates for quantification of radioactivity in PtdCho (black squares).
Labeling Studies and Phospholipid Analysis in P. falciparum: Nigerian strains of P. falciparum were asexually cultured in the presence of basic medium (RPMI 1640 supplemented with 25 mM Hepes, pH 7.4) and 10% AB^+ human serum (Trager and Jensen, 1976). Parasite synchronization was obtained with three successive 5% sorbitol treatments (Lambros and Vanderberg, 1979). Synchronized P. falciparum-infected erythrocytes (7-10% parasitemia, trophozoites) were pre-incubated for 1 hour at 37° C. at 4% hematocrit in 2 ml (final volume) basic medium in the absence or the presence of different concentrations of the compound G25. The appropriate radioactive precursor of lipid metabolism was added followed by further 3 h of incubation. Radioactive precursors were used as follows: 30 μM [methyl-^3H]-choline (334 mCi/mmol), 2 μM [^3H]-ethanolamine (2 Ci/mmol) and 10 μM [3-^14C]-serine (57 mCi/mmol). Following incubation with radiolabeled precursors, cells were concentrated by centrifugation at 1,200×g for 5 min at 4° C., washed twice and the cellular lipids were extracted by a mixture of chloroform/methanol (Folch, et al., 1957) and the organic phase was evaporated under air. […] The silica gel of the lipid spots were scraped directly into scintillation vials containing 3 ml of liquid-scintillation fluid and counted in a Beckman LS 5000 spectrophotometer. The amount of labeled precursors incorporated into cellular lipids (nmol×10^7 cell^−1×h^−1) was computed on the basis of radioactivity incorporated into lipids and the specific activity of the precursors in the incubation medium. […]

[2] = tested on: endogenous PtdSer decarboxylase activity; test: Serine labeling: PtdEtn formation from PtdSer in P. falciparum-infected erythrocytes; type: cell-based, Plasmodium falciparum
Procedure: FIG. 10B. Effect of G25 on PtdEtn and PtdSer synthesis from serine. 5-6×10^7 synchronized P. falciparum-infected erythrocytes (7% trophozoite stage) were pre-incubated at 4% haematocrit for 1 h in RPMI-based medium containing the indicated concentration of G25 before adding 10 μM [^14C]-serine (57 mCi/mmol). After incubation at 37° C. for 3 h, the cellular lipids were extracted and fractionated on TLC plates for quantification of radioactivity in PtdSer (black diamonds), and PtdEtn (white circles).
Labeling Studies and Phospholipid Analysis in P. falciparum: Nigerian strains of P. falciparum were asexually cultured in the presence of basic medium (RPMI 1640 supplemented with 25 mM Hepes, pH 7.4) and 10% AB^+ human serum (Trager and Jensen, 1976). Parasite synchronization was obtained with three successive 5% sorbitol treatments (Lambros and Vanderberg, 1979). Synchronized P. falciparum-infected erythrocytes (7-10% parasitemia, trophozoites) were pre-incubated for 1 hour at 37° C. at 4% hematocrit in 2 ml (final volume) basic medium in the absence or the presence of different concentrations of the compound G25. The appropriate radioactive precursor of lipid metabolism was added followed by further 3 h of incubation. […] The silica gel of the lipid spots were scraped directly into scintillation vials containing 3 ml of liquid-scintillation fluid and counted in a Beckman LS 5000 spectrophotometer. The amount of labeled precursors incorporated into cellular lipids (nmol×10^7 cell^−1×h^−1) was computed on the basis of radioactivity incorporated into lipids and the specific activity of the precursors in the incubation medium.
The possible inhibition of PtdSer decarboxylase activity in P. falciparum by G25 was investigated. P. falciparum-infected erythrocytes were labeled with radiolabeled serine, which is readily incorporated into PtdSer, in the presence or absence of increasing concentrations of G25, and the effect of this compound on the parasite endogenous PtdSer decarboxylase activity was measured by following the formation of PtdEtn from PtdSer (FIG. 10B). […]

[3] = tested on: P. falciparum-infected erythrocytes; conditions: after 3 h incubation; cited from earlier work

## C[N+]1(CCCCCCCCCCCCCCCC[N+]2(C)CCCC2)CCCC1.[Br-].[Br-] [G25, 1,16-hexadecamethylenebis[N-methylpyrrolidinium]dibromide]
[1]; 1 μM G25
  inhibition of PtdCho biosynthesis: 56%
[1]; 10 μM G25
  inhibition of PtdCho biosynthesis: nearly complete inhibition
[1]; trophozoite-infected erythrocytes
  concentration causing a significant decrease of PtdCho biosynthesis: higher than 0.1 μM
[2]; 100 μM G25
  decrease in the pool of PtdEtn formed from PtdSer: 77%
  effect on first step of the CDP-DAG pathway catalyzed by PtdSer synthase: no effect
[2]; increasing concentrations of G25
  total incorporation of serine: not affected
[3]
  cellular accumulation ratio (CAR): ~300
